The source of these data is patent publication US7851637B2, “Compounds and methods for inhibiting the interaction of BCL proteins with binding partners” (Infinity Pharmaceuticals, Inc., priority 2004, dated 2010).

pIC50, pKi: −log10 of the molar value. Read-outs that look alike come from different tables or passages of the source. Where only a bound is given, the exact number is not on record here.

Test [1] concerns RL Human Follicular Lymphoma Cell Line. Briefly: Alamar blue cytotoxicity assay in RL cells. Type of test: cell-based. Conditions: Homo sapiens, 72 h incubation, read-out: Bcl RL Alamar Blue IC50. In outline:
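Compounds tested at 29 uM to 0.013 uM final (0.3% DMSO) on 30,000 RL cells per well. After 72 h at 37 C, 5% CO2, viability read with Alamar blue.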
(In general: Alamar Blue is a resazurin reagent that responds to reducing activity.)

Another test has as its target Bcl-2 (Homo sapiens, UniProt P10415). Briefly: Bcl-2 binding affinity analysis (fluorescence polarization binding assay). In outline: (§1)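 FP readout; quantitative in vitro binding format; same method applied to both anti-apoptotic proteins.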
A further test concerns the target Bcl-xL (Homo sapiens, UniProt Q07817). The test is described as follows: Bcl-xL binding affinity analysis (fluorescence polarization binding assay). Details: scale not given here. In outline: as §1
A general note: Fluorescence polarisation rises when a labelled molecule tumbles more slowly, as on binding a larger partner.

Test [2] concerns Human Pancreatic Cancer Cell Line Panc1. Briefly: Cell death assay (propidium iodide/Hoechst) in Panc1 cells with or without camptothecin. The settings on record: 72 hours, % cell death by propidium iodide/Hoechst. Type of test: cell-based. In outline: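 Panc1 cells, 10,000/well, exposed 72 h at 37 C to compound (29 uM to 0.13 uM, 0.3% DMSO) with or without 3 uM camptothecin. Propidium iodide and Hoechst staining imaged by fluorescence microscopy; % cell death = PI-stained/Hoechst-stained cells × 100.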

Setting [3] is: with 3 uM Camptothecin, read-out: Panc1 + Cpt IC50.
The mark [4] stands for this setting: Homo sapiens, PANC-1, without camptothecin, read-out: Panc1 − Cpt IC50.

Sequence of Bcl-2 (P10415 whole entry): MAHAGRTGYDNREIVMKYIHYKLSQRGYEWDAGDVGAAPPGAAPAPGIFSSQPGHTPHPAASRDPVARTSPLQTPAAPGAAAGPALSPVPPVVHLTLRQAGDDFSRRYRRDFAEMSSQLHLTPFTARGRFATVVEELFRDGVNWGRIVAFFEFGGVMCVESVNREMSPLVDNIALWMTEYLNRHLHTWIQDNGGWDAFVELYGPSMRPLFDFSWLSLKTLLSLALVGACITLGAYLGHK
Sequence of Bcl-xL (Q07817 whole entry): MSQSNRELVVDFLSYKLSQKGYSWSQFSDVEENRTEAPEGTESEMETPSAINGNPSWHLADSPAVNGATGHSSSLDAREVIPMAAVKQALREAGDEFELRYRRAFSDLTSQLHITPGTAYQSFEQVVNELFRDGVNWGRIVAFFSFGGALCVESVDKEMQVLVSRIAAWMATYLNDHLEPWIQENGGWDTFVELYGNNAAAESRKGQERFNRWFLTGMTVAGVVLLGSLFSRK

The pIC50 is −log10 of the IC50, conventionally taken in molar units. One may read the pKi as the Ki on a negative log10 scale, so that one unit is a factor of ten. For the compound `CC(C)CC(CN(C)C)N(Cc1ccccc1)Cc1cccc(CN2OC(CO)C(C(C)O)C2C(=O)NC2CC3CC(C2C)C3(C)C)c1` (stereo not shown) [Compound 435], the pIC50 in test [1] is 5.30 to 5.70; in test [2] (setting [3]), less than 5.60; in test [2] (without camptothecin, read-out: Panc1 − Cpt IC50), less than 5.60. Also, the pKi on Bcl-2 is greater than 6.10. Further, at Bcl-xL, the “Bcl-XL binding affinity Ki” value is on record as “♯”.
For `CC(O)C1C(CO)ON(Cc2cccc(CN(C)C(CC3CCCCC3)CN(C)C)c2)C1C(=O)NC1CC2CC(C1C)C2(C)C` (stereo not shown) [Compound 442], the results for the pIC50 in test [1], in test [2] (setting [4]) and in test [2] (setting [3]) were 5.30 to 5.70, less than 5.60 and less than 5.60, respectively. The pKi at Bcl-2 was greater than 6.10. Moreover, on Bcl-xL, the “Bcl-XL binding affinity Ki” value is on record as “♯”.
`CC(O)C1C(CO)ON(Cc2cccc(CNC(CC3CCCCC3)CN(C)C)c2)C1C(=O)NC1CC2CC(C1C)C2(C)C` (stereo not shown) [Compound 444]: the figures for the pIC50 in test [1], in test [2] (setting [4]) and in test [2] (setting [3]) were 5.30 to 5.70, less than 5.60 and less than 5.60, respectively. At Bcl-2, this compound had a negative-log Ki (pKi) greater than 6.10. For the same compound, the “Bcl-XL binding affinity Ki” value at Bcl-xL is “♯”.
As for `CC(O)C1C(CO)ON(Cc2cccc(CN3Cc4ccccc4C3CN(C)C)c2)C1C(=O)NC1CC2CC(C1C)C2(C)C` (stereo not shown) [Compound 470], the pIC50 in test [1] is less than 5.30; in test [2] (setting [4]) it was less than 5.60; in test [2] (setting [3]), less than 5.60. This compound also had a pKi on Bcl-2 greater than 6.10. Also, the “Bcl-XL binding affinity Ki” value at Bcl-xL is “♯”.
Regarding `CC(O)C1C(CO)ON(Cc2cccc(CN(CC(=O)N(C)C)Cc3ccccc3)c2)C1C(=O)NC1CC2CC(C1C)C2(C)C` (stereo not shown) [Compound 471], the pIC50 in test [1] was less than 5.30; in test [2] (setting [4]), less than 5.60; in test [2] (setting [3]), less than 5.60. The pKi at Bcl-2 is greater than 6.10. Also, the “Bcl-XL binding affinity Ki” value on Bcl-xL is “♯”.
With `CC(O)C1C(CO)ON(Cc2cccc(CNC(CC3CCCCCC3)CN(C)C)c2)C1C(=O)NC1CC2CC(C1C)C2(C)C` (stereo not shown) [Compound 472], the pIC50 is 5.30 to 5.70 in test [1], less than 5.60 in test [2] (setting [4]) and less than 5.60 in test [2] (setting [3]). For the same compound, the pKi on Bcl-2 is greater than 6.10. The “Bcl-XL binding affinity Ki” value at Bcl-xL is listed as “♯”.
For the compound `COc1c(CN2O[C@@H](CO)[C@@H]([C@H](C)O)[C@H]2C(=O)N[C@H]2C[C@H]3C[C@@H]([C@@H]2C)C3(C)C)cccc1-c1cccc(C(=O)N[C@H](CN(C)C)C2CCCCC2)c1` [Compound 480], the pIC50 in test [1] is 5.30 to 5.70; in test [2] (setting [4]), less than 5.60; in test [2] (setting [3]), 5.74 to 5.89. The pKi at Bcl-2 was greater than 6.10. The “Bcl-XL binding affinity Ki” value on Bcl-xL is “♯”.
For the compound `COc1c(CN2O[C@@H](CO)[C@@H]([C@H](C)O)[C@H]2C(=O)N[C@H]2C[C@H]3C[C@@H]([C@@H]2C)C3(C)C)cccc1-c1cccc(C(=O)N[C@H](CC(C)C)CN2CCCCCC2)c1` [Compound 483], the pIC50 in test [1] is 5.30 to 5.70; in test [2] (setting [4]) it was less than 5.60; in test [2] (setting [3]) it was 5.60 to 5.74. The compound also had a pKi at Bcl-2 greater than 6.10. Besides, the “Bcl-XL binding affinity Ki” value at Bcl-xL is “♯”.
For the compound `COc1c(CN2O[C@@H](CO)[C@@H]([C@H](C)O)[C@H]2C(=O)N[C@H]2C[C@H]3C[C@@H]([C@@H]2C)C3(C)C)cccc1-c1cccc(C(=O)N[C@@H](CN(C)C)C(C)C)c1` [Compound 484], the pIC50 in test [1] was 5.30 to 5.70; in test [2] (setting [4]), less than 5.60; in test [2] (setting [3]) it was less than 5.60. Also, the pKi at Bcl-2 was greater than 6.10. Also, the “Bcl-XL binding affinity Ki” value at Bcl-xL is given as “♯”.
Take `COc1c(CN2O[C@@H](CO)[C@@H]([C@H](C)O)[C@H]2C(=O)N[C@H]2C[C@H]3C[C@@H]([C@@H]2C)C3(C)C)cccc1-c1cccc(C(=O)N[C@H](Cc2ccccc2)CN(C)C)c1` [Compound 486]: the pIC50 in test [1] is 5.30 to 5.70; in test [2] (setting [4]), less than 5.60; in test [2] (setting [3]) it was less than 5.60. The same compound gave a pKi on Bcl-2 greater than 6.10. For the same compound, the “Bcl-XL binding affinity Ki” value on Bcl-xL is “♯”.
In the case of `COc1c(CN2O[C@@H](CO)[C@@H]([C@H](C)O)[C@H]2C(=O)N[C@H]2C[C@H]3C[C@@H]([C@@H]2C)C3(C)C)cccc1-c1cccc(C(=O)N[C@@H](CC2CCCCC2)CN(C)C)c1` [Compound 487], the pIC50 in test [1] is 5.30 to 5.70; in test [2] (setting [4]), less than 5.60; in test [2] (setting [3]), less than 5.60. Also, the pKi on Bcl-2 was greater than 6.10. For the same compound, the “Bcl-XL binding affinity Ki” value at Bcl-xL is “♯”.
As for `COc1c(CN2O[C@@H](CO)[C@@H]([C@H](C)O)[C@H]2C(=O)N[C@H]2C[C@H]3C[C@@H]([C@@H]2C)C3(C)C)cccc1-c1cccc(C(=O)N[C@H](CN(C)C)C(C)C)c1` [Compound 488], the figures for the negative logarithm of the IC50 (pIC50) in test [1], in test [2] (setting [4]) and in test [2] (setting [3]) were 5.30 to 5.70, less than 5.60 and less than 5.60, respectively. Besides, at Bcl-2, the pKi was greater than 6.10. In addition, the “Bcl-XL binding affinity Ki” value on Bcl-xL is listed as “♯”.
As for `CC(O)C1C(CO)ON(Cc2cccc(C(=O)NC(CCc3ccccc3)CN(C)C)c2)C1C(=O)NC1CC2CC(C1C)C2(C)C` (stereo not shown) [Compound 498], the pIC50 in test [1] is less than 5.30; in test [2] (setting [4]), less than 5.60; in test [2] (setting [3]) it was less than 5.60. This compound also had a pKi at Bcl-2 greater than 6.10. Moreover, the “Bcl-XL binding affinity Ki” value on Bcl-xL was “♯”.
Turning to `CC(C)CC(CN(C)C)NC(=O)c1cccc(CN2OC(CO)C(C(C)O)C2C(=O)NC2CC3CC(C2C)C3(C)C)c1` (stereo not shown) [Compound 505], the negative logarithm of the IC50 (pIC50) was less than 5.30 in test [1], less than 5.60 in test [2] (setting [4]) and less than 5.60 in test [2] (setting [3]). The pKi on Bcl-2 is greater than 6.10. Moreover, the “Bcl-XL binding affinity Ki” value on Bcl-xL is “♯”.
